The values below come from patent US11535629B2, “Dioxoloisoquinolinone derivatives and use thereof” (HANMI PHARMACEUTICAL CO., LTD., priority 2020, dated 2022).

In one assay the test system is KARPAS-422 cells. Put plainly: Cell growth inhibition test (CTG method). In kind it is cell-based. The settings on record: KARPAS-422 (EZH2^Y641N mutant), culturing for 7 days, read-out: Cell growth inhibitory activity (GI50, nM) KARPAS-422 (EZH2^Y641N mutant). How it is done:
The cultured cell strain was prepared at 1.8×10^4 cells/400 μL and placed in a 48-well plate.

A further assay concerns the target EZH1 (Homo sapiens (Human), UniProt Q92800). In words: EZH1 methyltransferase inhibitory activity (radiometric scintillation proximity assay).
Where [1] appears, read: Homo sapiens, KARPAS-422, 168 h.

Read-outs that look alike come from different tables or passages of the source. Some results are limits rather than exact numbers.

EZH1, sequence (Q92800 whole entry): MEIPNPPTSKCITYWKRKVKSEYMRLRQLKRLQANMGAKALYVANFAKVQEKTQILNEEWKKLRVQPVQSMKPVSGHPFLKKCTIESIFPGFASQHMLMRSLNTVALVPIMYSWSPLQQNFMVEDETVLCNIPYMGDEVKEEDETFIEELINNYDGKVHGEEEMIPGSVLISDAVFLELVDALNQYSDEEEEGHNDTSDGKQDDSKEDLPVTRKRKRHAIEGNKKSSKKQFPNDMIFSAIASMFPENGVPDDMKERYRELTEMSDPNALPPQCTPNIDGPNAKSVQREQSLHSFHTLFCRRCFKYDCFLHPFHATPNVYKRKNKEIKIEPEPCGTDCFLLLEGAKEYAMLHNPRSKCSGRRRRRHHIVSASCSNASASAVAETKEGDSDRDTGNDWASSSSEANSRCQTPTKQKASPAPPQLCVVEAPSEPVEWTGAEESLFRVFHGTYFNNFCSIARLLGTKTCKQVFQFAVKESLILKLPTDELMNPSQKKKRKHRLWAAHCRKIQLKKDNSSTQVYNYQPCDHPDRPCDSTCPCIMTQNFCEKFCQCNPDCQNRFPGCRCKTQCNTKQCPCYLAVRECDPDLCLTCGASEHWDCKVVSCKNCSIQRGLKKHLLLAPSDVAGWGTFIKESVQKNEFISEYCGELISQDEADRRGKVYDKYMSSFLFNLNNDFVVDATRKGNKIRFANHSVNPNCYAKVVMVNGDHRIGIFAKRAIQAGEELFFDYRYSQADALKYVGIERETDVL
EZH1, sequence (O75530 whole entry partner): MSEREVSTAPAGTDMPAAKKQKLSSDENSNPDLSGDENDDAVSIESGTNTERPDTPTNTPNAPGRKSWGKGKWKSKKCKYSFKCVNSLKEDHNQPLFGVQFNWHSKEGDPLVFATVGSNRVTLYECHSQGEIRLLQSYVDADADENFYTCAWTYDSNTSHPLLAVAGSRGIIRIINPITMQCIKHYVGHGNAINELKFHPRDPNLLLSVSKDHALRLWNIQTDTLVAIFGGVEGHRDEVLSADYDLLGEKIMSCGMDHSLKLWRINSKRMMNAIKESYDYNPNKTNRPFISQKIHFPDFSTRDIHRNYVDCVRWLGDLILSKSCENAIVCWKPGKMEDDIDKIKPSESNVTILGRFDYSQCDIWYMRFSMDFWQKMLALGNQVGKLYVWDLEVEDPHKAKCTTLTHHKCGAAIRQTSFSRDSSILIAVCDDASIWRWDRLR
EZH1, sequence (Q15022 whole entry partner): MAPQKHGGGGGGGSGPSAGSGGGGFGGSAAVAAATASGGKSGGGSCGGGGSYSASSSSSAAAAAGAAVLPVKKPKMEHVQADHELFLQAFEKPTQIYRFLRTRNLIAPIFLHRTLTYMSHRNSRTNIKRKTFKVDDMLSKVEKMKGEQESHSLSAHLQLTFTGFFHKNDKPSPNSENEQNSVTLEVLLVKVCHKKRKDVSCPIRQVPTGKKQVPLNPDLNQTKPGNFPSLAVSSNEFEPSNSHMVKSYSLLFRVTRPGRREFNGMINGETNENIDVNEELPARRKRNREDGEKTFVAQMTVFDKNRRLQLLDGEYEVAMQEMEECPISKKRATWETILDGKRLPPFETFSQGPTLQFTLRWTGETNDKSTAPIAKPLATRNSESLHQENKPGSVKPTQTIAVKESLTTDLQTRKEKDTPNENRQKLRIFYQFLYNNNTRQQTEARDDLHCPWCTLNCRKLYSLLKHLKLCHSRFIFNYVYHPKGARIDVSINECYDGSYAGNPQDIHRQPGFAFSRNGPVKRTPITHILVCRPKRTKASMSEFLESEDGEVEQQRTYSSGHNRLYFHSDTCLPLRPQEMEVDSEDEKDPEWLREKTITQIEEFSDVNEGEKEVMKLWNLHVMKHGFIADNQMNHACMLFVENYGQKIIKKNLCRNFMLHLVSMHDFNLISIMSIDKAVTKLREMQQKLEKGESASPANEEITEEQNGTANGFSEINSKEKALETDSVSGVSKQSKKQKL
EZH1, sequence (Q09028 whole entry partner): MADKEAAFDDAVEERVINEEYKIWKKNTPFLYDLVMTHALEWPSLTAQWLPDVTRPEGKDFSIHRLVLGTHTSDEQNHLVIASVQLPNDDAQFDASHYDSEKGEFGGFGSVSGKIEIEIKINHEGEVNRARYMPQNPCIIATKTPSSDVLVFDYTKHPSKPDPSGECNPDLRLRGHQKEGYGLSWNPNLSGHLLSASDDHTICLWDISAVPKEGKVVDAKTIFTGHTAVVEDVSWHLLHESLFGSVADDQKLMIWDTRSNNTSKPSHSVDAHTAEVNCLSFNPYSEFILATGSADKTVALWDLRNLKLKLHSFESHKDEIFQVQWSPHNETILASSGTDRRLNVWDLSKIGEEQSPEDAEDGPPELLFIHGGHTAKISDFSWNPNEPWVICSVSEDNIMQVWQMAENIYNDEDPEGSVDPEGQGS
EZH1, sequence (Q6ZN18 whole entry partner): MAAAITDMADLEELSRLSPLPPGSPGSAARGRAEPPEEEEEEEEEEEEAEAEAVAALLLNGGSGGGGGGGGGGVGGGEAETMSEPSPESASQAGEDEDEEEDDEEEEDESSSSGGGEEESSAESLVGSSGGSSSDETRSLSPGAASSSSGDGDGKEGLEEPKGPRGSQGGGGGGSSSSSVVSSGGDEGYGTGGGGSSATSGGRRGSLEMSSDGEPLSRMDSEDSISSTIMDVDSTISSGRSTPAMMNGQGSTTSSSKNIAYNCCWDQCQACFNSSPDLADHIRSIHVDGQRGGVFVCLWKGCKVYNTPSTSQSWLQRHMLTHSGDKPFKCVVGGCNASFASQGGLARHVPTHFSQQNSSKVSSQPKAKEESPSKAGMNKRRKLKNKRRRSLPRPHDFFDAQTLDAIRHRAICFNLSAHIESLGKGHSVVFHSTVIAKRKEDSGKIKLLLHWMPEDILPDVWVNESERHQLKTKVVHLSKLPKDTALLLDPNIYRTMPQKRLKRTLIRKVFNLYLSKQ
Method for EZH1: The inhibitory activity of the synthesized compounds above against EZH1 or EZH2 methyltransferase was measured. The experiments were consigned to Reaction Biology, and EZH1 or EZH2 activity was measured using a radiometric scintillation proximity assay. […] The buffer solution was comprised of 50 mmol/L Tris-HCl pH 8.0, 50 mmol/L NaCl, 1 mmol/L EDTA, 1 mmoL/L DTT, 1 mmol/L PMSF and 1% DMSO. Trichloroacetic acid was added to end the reaction, and SPA beads coated with PVT streptavidin were added followed by 1 hour reaction at room temperature. A TopCount NXT plate reader was used to measure the methylation value of the substrate peptide. The measured values were converted to percent activity, setting the mean value for wells treated with DMSO as 100% and the background mean value as 0%.

One may read the GI50 as the concentration at which growth is held to half of that of the control. As a reminder, the IC50 is the concentration needed to halve the response being measured. The low end stands for inhibition by little substance, the high end for a need for much substance. For `Cc1cc(C)c(CN2CCc3c(Cl)c4c(c(C)c3C2=O)OC(C)(C23CCC(N(C)C)(CC2)CC3)O4)c(=O)[nH]1` (single isomer, unassigned) [Compound 2, 9-chloro-6-((4,6-dimethyl-2-oxo-1,2-dihydropyridin-3-yl)methyl)-2-(4-(dimethylamino)bicyclo[2.2.2]octan-1-yl)-2,4-dimethyl-7,8-dihydro-[1,3]dioxolo[4,5-g]isoquinolin-5(6H)-one], the GI50 in the assay with KARPAS-422 cells was determined as 4.5 nM. The same compound gave an IC50 against EZH1 of 0.015 µM. The corresponding values for `COc1cc(C)[nH]c(=O)c1CN1CCc2c(Cl)c3c(c(C)c2C1=O)OC(C)(C12CCC(N(C)C)(CC1)CC2)O3` (single isomer, unassigned) [Compound 5, 9-chloro-2-(4-(dimethylamino)bicyclo[2.2.2]octan-1-yl)-6-((4-methoxy-6-methyl-2-oxo-1,2-dihydropyridin-3-yl)methyl)-2,4-dimethyl-7,8-dihydro[1,3]dioxolo[4,5-g]isoquinolin-5(6H)-one] are 4.5 nM and 0.017 µM.

Turning to `CSc1cc(C)[nH]c(=O)c1CN1CCc2c(Cl)c3c(c(C)c2C1=O)OC(C)(C12CCC(N(C)C)(CC1)CC2)O3` (single isomer, unassigned) [Compound 8, 9-chloro-2-(4-(dimethylamino)bicyclo[2.2.2]octan-1-yl)-2,4-dimethyl-6-((6-methyl-4-(methylthio)-2-oxo-1,2-dihydropyridin-3-yl)methyl)-7,8-dihydro[1,3]dioxolo[4,5-g]isoquinolin-5(6H)-one], the GI50 in the assay on KARPAS-422 cells came out at 3.9 nM. The compound further showed an IC50 on EZH1 of 0.167 µM. On the same counts, the results for `Cc1cc(C)c(CN2CCc3c(Br)c4c(c(C)c3C2=O)OC(C)(C23CCC(N(C)C)(CC2)CC3)O4)c(=O)[nH]1` (single isomer, unassigned) [Compound 11, 9-bromo-6-((4,6-dimethyl-2-oxo-1,2-dihydropyridin-3-yl)methyl)-2-(4-(dimethylamino)bicyclo[2.2.2]octan-1-yl)-2,4-dimethyl-7,8-dihydro-[1,3]dioxolo[4,5-g]isoquinolin-5(6H)-one] are 3.8 to 12 nM and 0.015 µM.

Consider `Cc1cc(C)c(CN2CCc3c(C)c4c(c(C)c3C2=O)OC(C)(C23CCC(N(C)C)(CC2)CC3)O4)c(=O)[nH]1` (single isomer, unassigned) [Compound 23, 6-((4,6-dimethyl-2-oxo-1,2-dihydropyridin-3-yl)methyl)-2-(4-(dimethylamino)bicyclo[2.2.2]octan-1-yl)-2,4,9-trimethyl-7,8-dihydro-[1,3]dioxolo[4,5-g]isoquinolin-5(6H)-one], for which, in the assay with KARPAS-422 cells (setting [1]), the GI50 lay in the range of 3.7 to 6.8 nM. The compound further showed an IC50 on EZH1 of 0.012 µM. Turning to `Cc1cc(C)c(CN2CCc3c(c(C)c4c(c3-c3cccnc3)O[C@@](C)([C@H]3CC[C@H](N(C)C)CC3)O4)C2=O)c(=O)[nH]1` [Compound 45, (S)-6-((4,6-dimethyl-2-oxo-1,2-dihydropyridin-3-yl)methyl)-2-(trans-4-(dimethylamino)cyclohexyl)-2,4-dimethyl-9-(pyridin-3-yl)-7,8-dihydro-[1,3]dioxolo[4,5-g]isoquinolin-5(6H)-one], the GI50 in the assay with KARPAS-422 cells (setting [1]) is more than 1000 nM. Still for that read-out and setting: the figure for `Cc1cc(C)c(CN2CCc3c(c(C)c4c(c3-c3cncnc3)O[C@](C)([C@H]3CC[C@H](N(C)C)CC3)O4)C2=O)c(=O)[nH]1` [Compound 46, (R)-6-((4,6-dimethyl-2-oxo-1,2-dihydropyridin-3-yl)methyl)-2-(trans-4-(dimethylamino)cyclohexyl)-2,4-dimethyl-9-(pyrimidin-5-yl)-7,8-dihydro-[1,3]dioxolo[4,5-g]isoquinolin-5(6H)-one] is 7 nM; for `Cc1cc(C)c(CN2CCc3c(c(C)c4c(c3-c3cncnc3)O[C@@](C)([C@H]3CC[C@H](N(C)C)CC3)O4)C2=O)c(=O)[nH]1` [Compound 47, (S)-6-((4,6-dimethyl-2-oxo-1,2-dihydropyridin-3-yl)methyl)-2-(trans-4-(dimethylamino)cyclohexyl)-2,4-dimethyl-9-(pyrimidin-5-yl)-7,8-dihydro-[1,3]dioxolo[4,5-g]isoquinolin-5(6H)-one] it is more than 1000 nM; for `Cc1cc(C)c(CN2CCc3c(c(C)c4c(c3-c3cccn3C)O[C@@](C)([C@H]3CC[C@H](N(C)C)CC3)O4)C2=O)c(=O)[nH]1` [Compound 49, (S)-6-((4,6-dimethyl-2-oxo-1,2-dihydropyridin-3-yl)methyl)-2-(trans-4-(dimethylamino)cyclohexyl)-2,4-dimethyl-9-(1-methyl-1H-pyrrol-2-yl)-7,8-dihydro-[1,3]dioxolo[4,5-g]isoquinolin-5 (6H)-one] it is more than 1000 nM. On to `Cc1cc(C)c(CN2CCc3c(c(C)c4c(c3-c3ccsc3)O[C@@](C)([C@H]3CC[C@H](N(C)C)CC3)O4)C2=O)c(=O)[nH]1` [Compound 51, (S)-6-((4,6-dimethyl-2-oxo-1,2-dihydropyridin-3-yl)methyl)-2-(trans-4-(dimethylamino)cyclohexyl)-2,4-dimethyl-9-(thiophen-3-yl)-7,8-dihydro-[1,3]dioxolo[4,5-g]isoquinolin-5(6H)-one], for which the GI50 in the assay with KARPAS-422 cells (setting [1]) was more than 1000 nM. For `Cc1cc(C)c(CN2CCc3c(c(C)c4c(c3-c3cncs3)O[C@@](C)([C@H]3CC[C@H](N(C)C)CC3)O4)C2=O)c(=O)[nH]1` [Compound 53, (S)-6-((4,6-dimethyl-2-oxo-1,2-dihydropyridin-3-yl)methyl)-2-(trans-4-(dimethylamino)cyclohexyl)-2,4-dimethyl-9-(thiazol-5-yl)-7,8-dihydro-[1,3]dioxolo[4,5-g]isoquinolin-5(6H)-one], in the assay with KARPAS-422 cells (setting [1]), the GI50 is more than 1000 nM. Same read-out and setting: the figure for `Cc1cc(C)c(CN2CCc3c(c(C)c4c(c3-n3ccnc3)O[C@](C)([C@H]3CC[C@H](N(C)C)CC3)O4)C2=O)c(=O)[nH]1` [Compound 54, (R)-6-((4,6-dimethyl-2-oxo-1,2-dihydropyridin-3-yl)methyl)-2-(trans-4-(dimethylamino)cyclohexyl)-9-(1H-Imidazol-1-yl)-2,4-dimethyl-7,8-dihydro-[1,3]dioxolo[4,5-g]isoquinolin-5(6H)-one] is 28 nM. On the same count and under the same terms, the value for `Cc1cc(C)c(CN2CCc3c(c(C)c4c(c3-n3ccnc3)O[C@@](C)([C@H]3CC[C@H](N(C)C)CC3)O4)C2=O)c(=O)[nH]1` [Compound 55, (S)-6-((4,6-dimethyl-2-oxo-1,2-dihydropyridin-3-yl)methyl)-2-(trans-4-(dimethylamino)cyclohexyl)-9-(1H-imidazol-1-yl)-2,4-dimethyl-7,8-dihydro-[1,3]dioxolo[4,5-g]isoquinolin-5(6H)-one] was more than 1000 nM. For `Cc1cc(C)c(CN2CCc3c(c(C)c4c(c3-c3ccoc3)O[C@](C)([C@H]3CC[C@H](N(C)C)CC3)O4)C2=O)c(=O)[nH]1` [Compound 56, (R)-6-((4,6-dimethyl-2-oxo-1,2-dihydropyridin-3-yl)methyl)-2-(trans-4-(dimethylamino)cyclohexyl)-9-(furan-3-yl)-2,4-dimethyl-7,8-dihydro-[1,3]dioxolo[4,5-g]isoquinolin-5(6H)-one], the GI50 with KARPAS-422 cells (setting [1]) was found to be 7.2 nM. Take `Cc1cc(C)c(CN2CCc3c(c(C)c4c(c3-c3ccoc3)O[C@@](C)([C@H]3CC[C@H](N(C)C)CC3)O4)C2=O)c(=O)[nH]1` [Compound 57, (S)-6-((4,6-dimethyl-2-oxo-1,2-dihydropyridin-3-yl)methyl)-2-(trans-4-(dimethylamino)cyclohexyl)-9-(furan-3-yl)-2,4-dimethyl-7,8-dihydro-[1,3]dioxolo[4,5-g]isoquinolin-5(6H)-one]: the GI50 in the assay with KARPAS-422 cells (setting [1]) was more than 1000 nM. On the same count and under the same terms, the figure for `Cc1cc(C)c(CN2CCc3c(c(C)c4c(c3-c3ccco3)O[C@](C)([C@H]3CC[C@H](N)CC3)O4)C2=O)c(=O)[nH]1` [Compound 58, (R)-2-(trans-4-aminocyclohexyl)-6-((4,6-dimethyl-2-oxo-1,2-dihydropyridin-3-yl)methyl)-9-(furan-2-yl)-2,4-dimethyl-7,8-dihydro-[1,3]dioxolo[4,5-g]isoquinolin-5(6H)-one] is 28 nM; for `Cc1cc(C)c(CN2CCc3c(c(C)c4c(c3-c3ccco3)O[C@@](C)([C@H]3CC[C@H](N)CC3)O4)C2=O)c(=O)[nH]1` [Compound 59, (S)-2-(trans-4-aminocyclohexyl)-6-((4,6-dimethyl-2-oxo-1,2-dihydropyridin-3-yl)methyl)-9-(furan-2-yl)-2,4-dimethyl-7,8-dihydro-[1,3]dioxolo[4,5-g]isoquinolin-5(6H)-one] it is more than 1000 nM.

`CN[C@H]1CC[C@H]([C@]2(C)Oc3c(C)c4c(c(-c5ccco5)c3O2)CCN(Cc2c(C)cc(C)[nH]c2=O)C4=O)CC1` [Compound 60, (R)-6-((4,6-dimethyl-2-oxo-1,2-dihydropyridin-3-yl)methyl)-9-(furan-2-yl)-2,4-dimethyl-2-(trans-4-(methylamino)cyclohexyl)-7,8-dihydro-[1,3]dioxolo[4,5-g]isoquinolin-5(6H)-one]: the GI50 with KARPAS-422 cells (setting [1]) turned out to be 19 nM. The same measure, in the same setting: the figure for `CN[C@H]1CC[C@H]([C@@]2(C)Oc3c(C)c4c(c(-c5ccco5)c3O2)CCN(Cc2c(C)cc(C)[nH]c2=O)C4=O)CC1` [Compound 61, (S)-6-((4,6-dimethyl-2-oxo-1,2-dihydropyridin-3-yl)methyl)-9-(furan-2-yl)-2,4-dimethyl-2-(trans-4-(methylamino)cyclohexyl)-7,8-dihydro-[1,3]dioxolo[4,5-g]isoquinolin-5(6H)-one] is more than 1000 nM; for `Cc1cc(C)c(CNC(=O)c2cc(Cl)c3c(c2C)O[C@@](C)([C@H]2CC[C@H](N(C)C)CC2)O3)c(=O)[nH]1` [Control B, (2R)-7-chloro-2-[trans-4-(dimethylamino)cyclohexyl]-N-[(4,6-dimethyl-2-oxo-1,2-dihydropyridin-3-yl)methyl]-2,4-dimethyl-1,3-benzodioxole-5-carboxamide, reference compound] it is 1.3 to 15 nM.
